Read-outs that look alike come from different tables or passages of the source.
Legend:
[1] = molecular target: IRAK1 (Homo sapiens, UniProt P51617); conditions: 0.1 µM; binder
[2] = molecular target: PRKCD (Homo sapiens, UniProt Q05655); conditions: 0.1 µM; binder
[3] = molecular target: NDR1 (Homo sapiens, UniProt Q15208); conditions: 0.1 µM; binder
[4] = molecular target: LYN (Homo sapiens, UniProt P07948); conditions: 0.1 µM; binder
[5] = molecular target: ERK5 (Homo sapiens, UniProt Q13164); conditions: 0.1 µM; binder
[6] = molecular target: BRSK2 (Homo sapiens, UniProt Q8IWQ3); conditions: 0.1 µM; binder
[7] = molecular target: BRAF (Homo sapiens, UniProt P15056); conditions: 0.1 µM; binder
[8] = molecular target: FGFR2 (Homo sapiens, UniProt P21802); conditions: 0.1 µM; binder
[9] = molecular target: FLT3(D835V) (Homo sapiens, UniProt P36888, D835V); conditions: 0.1 µM; binder
[10] = molecular target: TSSK1B (Homo sapiens, UniProt Q9BXA7); conditions: 0.1 µM; binder
[11] = molecular target: PKAC-beta (Homo sapiens, UniProt P22694); conditions: 0.1 µM; binder
[12] = molecular target: TAOK2 (Homo sapiens, UniProt Q9UL54); conditions: 0.1 µM; binder
[13] = molecular target: NEK3 (Homo sapiens, UniProt P51956); conditions: 0.1 µM; binder
[14] = molecular target: ABL2 (Homo sapiens, UniProt P42684); conditions: 0.1 µM; binder
[15] = molecular target: MKNK2 (Homo sapiens, UniProt Q9HBH9); conditions: 0.1 µM; binder
[16] = molecular target: CSNK2A2 (Homo sapiens, UniProt P19784); conditions: 0.1 µM; binder
[17] = molecular target: LOK (Homo sapiens, UniProt O94804); conditions: 0.1 µM; binder
[18] = molecular target: INSRR (Homo sapiens, UniProt P14616); conditions: 0.1 µM; binder
[19] = molecular target: LKB1 (Homo sapiens, UniProt Q15831); conditions: 0.1 µM; binder
[20] = molecular target: CDKL2 (Homo sapiens, UniProt Q92772); conditions: 0.1 µM; binder
[21] = molecular target: PAK6 (Homo sapiens, UniProt Q9NQU5); conditions: 0.1 µM; binder
[22] = molecular target: T1, FLT3 (Homo sapiens, UniProt P36888); conditions: 0.1 µM, binder
T1 sequence (P36888 1-993): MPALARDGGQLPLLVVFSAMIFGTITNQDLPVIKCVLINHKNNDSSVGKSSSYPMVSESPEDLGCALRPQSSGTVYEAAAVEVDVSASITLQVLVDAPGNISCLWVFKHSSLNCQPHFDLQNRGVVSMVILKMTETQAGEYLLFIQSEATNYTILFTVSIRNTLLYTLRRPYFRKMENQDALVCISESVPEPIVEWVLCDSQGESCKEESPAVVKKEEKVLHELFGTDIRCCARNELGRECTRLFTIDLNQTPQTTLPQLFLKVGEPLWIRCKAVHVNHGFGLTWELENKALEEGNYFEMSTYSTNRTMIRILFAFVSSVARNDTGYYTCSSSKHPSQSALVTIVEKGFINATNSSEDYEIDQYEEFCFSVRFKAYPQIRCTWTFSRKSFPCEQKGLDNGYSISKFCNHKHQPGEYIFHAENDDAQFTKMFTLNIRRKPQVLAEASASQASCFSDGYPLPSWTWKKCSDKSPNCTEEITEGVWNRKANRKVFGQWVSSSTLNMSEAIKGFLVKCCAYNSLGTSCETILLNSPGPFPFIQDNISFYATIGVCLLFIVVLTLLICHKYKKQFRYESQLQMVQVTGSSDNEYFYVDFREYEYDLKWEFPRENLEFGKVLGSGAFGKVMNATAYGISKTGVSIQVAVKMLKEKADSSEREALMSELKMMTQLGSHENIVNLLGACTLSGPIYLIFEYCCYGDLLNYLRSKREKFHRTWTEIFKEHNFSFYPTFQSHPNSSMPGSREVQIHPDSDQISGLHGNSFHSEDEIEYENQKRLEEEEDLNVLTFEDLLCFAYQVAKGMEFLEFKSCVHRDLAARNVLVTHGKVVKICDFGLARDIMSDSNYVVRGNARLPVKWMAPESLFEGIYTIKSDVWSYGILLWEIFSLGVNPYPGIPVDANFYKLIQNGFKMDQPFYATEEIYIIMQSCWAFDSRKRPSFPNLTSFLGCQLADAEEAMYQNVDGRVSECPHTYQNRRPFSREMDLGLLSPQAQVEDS

Chain of LOK (O94804 whole entry): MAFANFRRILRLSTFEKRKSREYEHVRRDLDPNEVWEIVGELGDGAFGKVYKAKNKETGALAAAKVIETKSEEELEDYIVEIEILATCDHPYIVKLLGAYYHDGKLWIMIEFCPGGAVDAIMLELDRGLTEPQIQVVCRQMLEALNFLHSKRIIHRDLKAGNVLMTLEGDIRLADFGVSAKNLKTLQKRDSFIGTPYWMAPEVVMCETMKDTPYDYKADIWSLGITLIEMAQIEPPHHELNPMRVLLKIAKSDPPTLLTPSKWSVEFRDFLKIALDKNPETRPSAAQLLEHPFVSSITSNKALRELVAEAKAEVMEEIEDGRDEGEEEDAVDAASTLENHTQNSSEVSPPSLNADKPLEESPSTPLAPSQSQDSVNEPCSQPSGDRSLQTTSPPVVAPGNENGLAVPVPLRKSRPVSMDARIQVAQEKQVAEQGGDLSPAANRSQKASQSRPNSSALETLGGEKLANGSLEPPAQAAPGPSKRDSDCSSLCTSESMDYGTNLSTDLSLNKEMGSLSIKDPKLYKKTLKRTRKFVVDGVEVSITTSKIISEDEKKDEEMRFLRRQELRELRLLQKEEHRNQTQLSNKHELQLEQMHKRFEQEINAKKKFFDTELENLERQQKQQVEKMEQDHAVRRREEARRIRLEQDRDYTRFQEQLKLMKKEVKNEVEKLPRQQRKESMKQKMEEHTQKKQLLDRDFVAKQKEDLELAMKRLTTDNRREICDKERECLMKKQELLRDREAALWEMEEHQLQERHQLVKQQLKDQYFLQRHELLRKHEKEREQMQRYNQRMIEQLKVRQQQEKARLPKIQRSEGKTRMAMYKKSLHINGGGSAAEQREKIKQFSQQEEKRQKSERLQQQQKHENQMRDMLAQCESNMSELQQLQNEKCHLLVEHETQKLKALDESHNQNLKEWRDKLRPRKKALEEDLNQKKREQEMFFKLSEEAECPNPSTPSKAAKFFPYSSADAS
Chain of PAK6 (Q9NQU5 whole entry): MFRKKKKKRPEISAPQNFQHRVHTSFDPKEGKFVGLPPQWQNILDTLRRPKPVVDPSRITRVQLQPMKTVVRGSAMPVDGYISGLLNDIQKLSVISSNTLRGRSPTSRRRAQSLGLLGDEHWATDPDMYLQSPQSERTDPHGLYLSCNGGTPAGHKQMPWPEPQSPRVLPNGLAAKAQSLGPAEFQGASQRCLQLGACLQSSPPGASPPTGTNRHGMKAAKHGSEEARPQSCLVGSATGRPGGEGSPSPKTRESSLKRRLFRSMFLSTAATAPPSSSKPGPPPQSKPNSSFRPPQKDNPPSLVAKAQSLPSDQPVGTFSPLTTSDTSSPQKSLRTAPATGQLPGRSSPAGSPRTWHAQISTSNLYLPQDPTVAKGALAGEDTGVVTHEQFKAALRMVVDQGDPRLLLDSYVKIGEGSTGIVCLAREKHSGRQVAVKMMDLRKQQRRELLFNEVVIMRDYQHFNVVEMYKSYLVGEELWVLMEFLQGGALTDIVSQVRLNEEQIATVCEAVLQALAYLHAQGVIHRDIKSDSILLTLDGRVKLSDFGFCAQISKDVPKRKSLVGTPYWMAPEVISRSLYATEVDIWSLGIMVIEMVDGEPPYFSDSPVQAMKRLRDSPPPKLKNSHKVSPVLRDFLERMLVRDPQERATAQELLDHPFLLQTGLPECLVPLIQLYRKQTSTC
Chain of LKB1 (Q15831 whole entry): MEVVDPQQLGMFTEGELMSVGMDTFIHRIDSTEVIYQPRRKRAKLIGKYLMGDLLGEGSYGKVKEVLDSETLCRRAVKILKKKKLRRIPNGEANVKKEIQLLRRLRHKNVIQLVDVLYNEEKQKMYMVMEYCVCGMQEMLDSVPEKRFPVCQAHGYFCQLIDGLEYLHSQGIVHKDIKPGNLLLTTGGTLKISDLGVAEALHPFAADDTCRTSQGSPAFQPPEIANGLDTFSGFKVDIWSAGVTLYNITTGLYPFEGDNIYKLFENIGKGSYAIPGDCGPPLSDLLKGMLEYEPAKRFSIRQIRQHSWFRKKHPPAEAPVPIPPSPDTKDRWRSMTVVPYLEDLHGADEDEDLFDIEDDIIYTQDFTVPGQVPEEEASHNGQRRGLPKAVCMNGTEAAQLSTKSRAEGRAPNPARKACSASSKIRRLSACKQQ
Chain of CSNK2A2 (P19784 whole entry): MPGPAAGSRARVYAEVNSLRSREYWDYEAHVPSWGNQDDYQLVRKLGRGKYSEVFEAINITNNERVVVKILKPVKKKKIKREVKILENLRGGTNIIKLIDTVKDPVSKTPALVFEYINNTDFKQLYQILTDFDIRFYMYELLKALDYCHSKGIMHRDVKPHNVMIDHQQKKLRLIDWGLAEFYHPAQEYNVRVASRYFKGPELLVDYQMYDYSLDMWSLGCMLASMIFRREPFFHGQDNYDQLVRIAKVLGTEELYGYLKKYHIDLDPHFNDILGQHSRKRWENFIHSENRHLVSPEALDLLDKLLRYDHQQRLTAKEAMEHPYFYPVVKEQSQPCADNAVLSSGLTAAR
Chain of FGFR2 (P21802 whole entry): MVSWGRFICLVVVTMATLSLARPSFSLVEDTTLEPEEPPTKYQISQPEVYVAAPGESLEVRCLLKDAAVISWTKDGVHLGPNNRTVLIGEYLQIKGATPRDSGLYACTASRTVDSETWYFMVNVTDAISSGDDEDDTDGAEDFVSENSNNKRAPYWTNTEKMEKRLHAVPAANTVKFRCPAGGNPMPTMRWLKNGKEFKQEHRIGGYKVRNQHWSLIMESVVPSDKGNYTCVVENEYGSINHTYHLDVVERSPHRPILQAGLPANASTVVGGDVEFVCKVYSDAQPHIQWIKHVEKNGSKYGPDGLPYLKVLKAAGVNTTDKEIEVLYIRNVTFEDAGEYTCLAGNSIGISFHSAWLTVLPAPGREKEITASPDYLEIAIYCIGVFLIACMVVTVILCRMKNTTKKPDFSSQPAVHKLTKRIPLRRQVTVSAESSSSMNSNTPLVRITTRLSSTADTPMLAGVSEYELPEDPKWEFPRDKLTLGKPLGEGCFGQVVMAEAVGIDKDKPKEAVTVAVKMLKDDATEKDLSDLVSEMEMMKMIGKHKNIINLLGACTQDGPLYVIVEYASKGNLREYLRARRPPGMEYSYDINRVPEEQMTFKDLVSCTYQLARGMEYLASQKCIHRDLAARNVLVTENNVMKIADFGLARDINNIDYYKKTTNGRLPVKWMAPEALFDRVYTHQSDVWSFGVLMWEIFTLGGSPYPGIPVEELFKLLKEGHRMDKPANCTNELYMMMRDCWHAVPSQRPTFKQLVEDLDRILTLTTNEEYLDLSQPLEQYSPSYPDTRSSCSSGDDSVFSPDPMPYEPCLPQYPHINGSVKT
Chain of TSSK1B (Q9BXA7 whole entry): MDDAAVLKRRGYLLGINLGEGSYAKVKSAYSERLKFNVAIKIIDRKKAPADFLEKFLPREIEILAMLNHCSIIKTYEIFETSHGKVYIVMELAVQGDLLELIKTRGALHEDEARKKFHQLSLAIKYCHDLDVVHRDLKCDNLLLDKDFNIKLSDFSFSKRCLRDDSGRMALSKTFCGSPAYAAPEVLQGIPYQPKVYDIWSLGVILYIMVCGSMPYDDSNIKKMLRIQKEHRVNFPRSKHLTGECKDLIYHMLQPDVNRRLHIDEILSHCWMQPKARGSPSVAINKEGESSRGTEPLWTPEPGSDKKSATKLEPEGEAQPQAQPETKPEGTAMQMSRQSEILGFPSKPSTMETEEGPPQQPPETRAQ
Chain of IRAK1 (P51617 whole entry): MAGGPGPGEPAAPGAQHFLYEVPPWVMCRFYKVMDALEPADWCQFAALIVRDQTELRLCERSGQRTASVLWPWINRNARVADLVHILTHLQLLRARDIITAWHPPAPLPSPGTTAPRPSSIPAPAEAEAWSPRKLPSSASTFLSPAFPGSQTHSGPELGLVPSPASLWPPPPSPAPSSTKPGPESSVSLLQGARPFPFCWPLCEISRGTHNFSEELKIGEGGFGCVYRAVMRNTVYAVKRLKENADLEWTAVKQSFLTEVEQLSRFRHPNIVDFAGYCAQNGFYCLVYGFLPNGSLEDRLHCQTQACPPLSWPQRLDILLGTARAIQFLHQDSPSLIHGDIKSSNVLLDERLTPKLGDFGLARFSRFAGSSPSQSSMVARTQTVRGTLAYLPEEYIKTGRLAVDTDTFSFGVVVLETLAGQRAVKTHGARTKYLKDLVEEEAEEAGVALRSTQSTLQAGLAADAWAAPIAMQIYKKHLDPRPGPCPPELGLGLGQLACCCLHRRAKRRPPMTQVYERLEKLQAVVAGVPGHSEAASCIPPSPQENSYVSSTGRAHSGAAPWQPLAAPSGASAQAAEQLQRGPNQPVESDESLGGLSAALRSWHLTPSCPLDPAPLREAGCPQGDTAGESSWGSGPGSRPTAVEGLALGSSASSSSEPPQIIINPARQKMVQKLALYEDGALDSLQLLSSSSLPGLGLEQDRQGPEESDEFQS
Chain of NDR1 (Q15208 whole entry): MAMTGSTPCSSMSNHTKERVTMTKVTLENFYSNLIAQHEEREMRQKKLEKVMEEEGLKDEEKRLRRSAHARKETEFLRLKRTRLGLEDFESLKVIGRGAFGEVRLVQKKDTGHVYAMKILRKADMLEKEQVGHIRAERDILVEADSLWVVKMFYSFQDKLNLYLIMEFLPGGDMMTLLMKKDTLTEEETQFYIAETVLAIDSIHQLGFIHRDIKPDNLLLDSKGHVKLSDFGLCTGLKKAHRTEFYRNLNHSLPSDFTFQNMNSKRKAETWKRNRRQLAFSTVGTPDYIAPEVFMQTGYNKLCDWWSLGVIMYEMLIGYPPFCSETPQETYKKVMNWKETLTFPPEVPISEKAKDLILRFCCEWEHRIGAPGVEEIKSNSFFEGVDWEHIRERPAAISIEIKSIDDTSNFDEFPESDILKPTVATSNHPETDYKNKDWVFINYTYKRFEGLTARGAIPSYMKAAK

Compound: CNc1ncc2cc(-c3ccc(-c4cccc(C)n4)cc3Cl)c(=O)n(C[C@H]3OC[C@H](N)CO3)c2n1 [compound 6, G-5555]
- Percent Control [1]: 97%
- Percent Control [2]: 100%
- Percent Control [3]: 97%
- Percent Control [4]: 100%
- Percent Control [5]: 98%
- Percent Control [6]: 100%
- Percent Control [7]: 100%
- Percent Control [8]: 100%
- Percent Control [9]: 85%
- Percent Control [10]: 98%
- Percent Control [11]: 100%
- Percent Control [12]: 99%
- Percent Control [13]: 93%
- Percent Control [14]: 100%
- Percent Control [15]: 100%
- Percent Control [16]: 96%
- Percent Control [17]: 37%
- Percent Control [18]: 100%
- Percent Control [19]: 100%
- Percent Control [20]: 100%
- Percent Control [21]: 92%
- Percent Control [22]: 100%
- Percent Control ([22]; autoinhibited): 94%

— paper doi:10.1101/2021.04.08.439011v1 (biorxiv, 2021)
